Data published in EP3048886B1, “3, 4-BIS-BENZYLSULFONYLBUTANENITRILE AND ITS PHARMACEUTICAL USE” (Olatec Therapeutics LLC, priority 2013, dated 2015).

How the values were obtained:
[1] = tested on: arachidonic acid-induced ear swelling; test: topical arachidonic acid-induced ear swelling model in mice; format: in vivo; conditions: inhibition of ear swelling vs vehicle, male ICR mice; topical application 30 min before and 15 min after arachidonic acid; measured at 90 minutes after arachidonic acid application
Description: The test compound, indomethacin (positive control), and vehicle were evaluated for anti-inflammatory activity in a topical arachidonic acid-induced ear swelling model in mice.
Male ICR mice weighing 22 ± 2 g were used and randomly divided; the test compound and vehicle control had 10 mice, and indomethacin had 5 mice. Arachidonic Acid (0.5 mg in 20 µl of acetone:ethanol/1:1) was applied topically to the anterior and posterior surfaces of the right ear of each mouse. Test substances and vehicle, as listed in Table 2 were similarly applied 30 min before and 15 min after arachidonic acid application. The thickness of the right ear and the left ear was measured and the difference calculated as an indication of the inflammation in the right ear. Ear swelling was measured by a Dyer model micrometer gauge at 60 and 90 minutes after arachidonic acid application as an index of inflammation. Percent inhibition was calculated according to the formula: Ic - It/Ic x 100, where Ic and It refers to increase of ear thickness (mm) in control and treated mice, respectively. ANOVA and Dunnett's test were employed to ascertain significant difference between vehicle control and treated groups. Significance is set at P<0.05 level.

[2] = tested on: tail flick reaction to heat; test: tail flick test (49°C water bath) in mice; conditions: mouse, in vivo
Description: The tail flick test is a test of the pain response in animals. The tail flick test is used in basic pain research and to measure the effectiveness of analgesics, by observing the tail flick reaction to heat in an animal. This test assesses the nociceptive response to a local pain stimulus, and the ability of a drug to inhibit this response.
Vehicle control (DMSO) and test compound 3,4-bis-benzylsulfonylbutanenitrile in DMSO were administered by oral gavage to mice with a volume of 5 mL/kg, immediately prior to testing, at time zero. The test compound was administered at a dosage of 500 mg/kg in DMSO. Positive control morphine in water was administered at time zero by subcutaneous injection at 8 mg/kg to mice. […] The purpose of morphine is not to serve as a comparison with the test compound. Each group had 10 mice.
The response of mice to heat stimulus was evaluated by measuring the time of tail-flick or tail-flick latency from 49°C water bath. Briefly, the animal was held with its tail hanging down. Approximately 5.08 cm (2 inches) of the tail was immersed in a beaker of water at 38±1 °C for about 30 seconds, and this was done twice to acclimate the animal to the procedure.
Subsequently, approximately 5.08 cm (2 inches) of the tail was immersed in a beaker of water at 49±1 °C, at which point a timer was started. […]

SMILES	% Inhibition [1] [%]	tail flick latency compared with vehicle-treated mice [2]
N#CCC(CS(=O)(=O)Cc1ccccc1)S(=O)(=O)Cc1ccccc1 (centres unmarked) [3,4-bis-benzylsulfonylbutanenitrile]	34	
CN1CC[C@]23c4c5ccc(O)c4O[C@H]2[C@@H](O)C=C[C@H]3[C@H]1C5 [morphine]		not
